According to patent publication EP0394553A2, “Use of fluorine containing pyridone carboxylic acid derivatives for preparing a medicament for the treatment of HIV infections” (DAIICHI PHARMACEUTICAL CO., LTD., priority 1989, dated 1990):
Read-outs that look alike come from different tables or passages of the source.

Experiments:
HIV (LAV 1) = experiment: microbe, parasite or virus in culture; settings: for Viable cell count / Viral antigen-positive cell percentage: 4-day addition; for viability at 1 µg/mL / viability at 2.5 µg/mL / viability at 5 µg/mL / viability at 10 µg/mL: Human immunodeficiency virus 1, CCRF-CEM
Outline: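 CEM cells were infected with HIV LAV 1 at MOI 0.05 and cultured with test substance at 10, 5, 2.5 or 1 mcg/ml, with medium exchanged periodically up to 30 days. Viable cell count and percentage were measured by trypan blue, and antigen-positive cells by immunofluorescence with anti-HIV antiserum, at 4–30 days. Values are means of two wells.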

in vivo = settings: mouse, po

SMILES: CCn1cc(C(=O)O)c(=O)c2cc(F)c(N3CCNCC3)cc21 [NFLX, 1-ethyl-6-fluoro-1,4-dihydro-4-oxo-7-(1-piperazinyl)-3-quinolinecarboxylic acid]
- Viable cell count (HIV (LAV 1); 1 mcg/ml, after 4 days): 230 × 10⁴ cells/ml
- Viral antigen-positive cell percentage (HIV (LAV 1); 1 mcg/ml, after 4 days): 88%
- Viable cell count (HIV (LAV 1); 1 mcg/ml, after 7 days): 52 × 10⁴ cells/ml
- Viral antigen-positive cell percentage (HIV (LAV 1); 1 mcg/ml, after 7 days): 75%
- Viable cell count (HIV (LAV 1); 1 mcg/ml, after 10 days): 26 × 10⁴ cells/ml
- Viable cell count (HIV (LAV 1); 1 mcg/ml, after 20 days): 0 × 10⁴ cells/ml
- Viable cell count (HIV (LAV 1); 1 mcg/ml, after 30 days): 0 × 10⁴ cells/ml
- Viable cell count (HIV (LAV 1); 2.5 mcg/ml, after 4 days): 240 × 10⁴ cells/ml
- Viral antigen-positive cell percentage (HIV (LAV 1); 2.5 mcg/ml, after 4 days): 93%
- Viable cell count (HIV (LAV 1); 2.5 mcg/ml, after 7 days): 59 × 10⁴ cells/ml
- Viral antigen-positive cell percentage (HIV (LAV 1); 2.5 mcg/ml, after 7 days): 55%
- Viable cell count (HIV (LAV 1); 2.5 mcg/ml, after 10 days): 40 × 10⁴ cells/ml
- Viable cell count (HIV (LAV 1); 2.5 mcg/ml, after 20 days): 2 × 10⁴ cells/ml
- Viable cell count (HIV (LAV 1); 2.5 mcg/ml, after 30 days): 70 × 10⁴ cells/ml
- Viral antigen-positive cell percentage (HIV (LAV 1); 2.5 mcg/ml, after 30 days): ≦1%
- Viable cell count (HIV (LAV 1); 5 mcg/ml, after 4 days): 230 × 10⁴ cells/ml
- Viral antigen-positive cell percentage (HIV (LAV 1); 5 mcg/ml, after 4 days): 83%
- Viable cell count (HIV (LAV 1); 5 mcg/ml, after 7 days): 84 × 10⁴ cells/ml
- Viral antigen-positive cell percentage (HIV (LAV 1); 5 mcg/ml, after 7 days): 65%
- Viable cell count (HIV (LAV 1); 5 mcg/ml, after 10 days): 86 × 10⁴ cells/ml
- Viable cell count (HIV (LAV 1); 5 mcg/ml, after 20 days): 28 × 10⁴ cells/ml
- Viable cell count (HIV (LAV 1); 5 mcg/ml, after 30 days): 330 × 10⁴ cells/ml
- Viral antigen-positive cell percentage (HIV (LAV 1); 5 mcg/ml, after 30 days): ≦1%
- Viable cell count (HIV (LAV 1); 10 mcg/ml, after 4 days): 180 × 10⁴ cells/ml
- Viral antigen-positive cell percentage (HIV (LAV 1); 10 mcg/ml, after 4 days): 92%
- Viable cell count (HIV (LAV 1); 10 mcg/ml, after 7 days): 60 × 10⁴ cells/ml
- Viral antigen-positive cell percentage (HIV (LAV 1); 10 mcg/ml, after 7 days): 63%
- Viable cell count (HIV (LAV 1); 10 mcg/ml, after 10 days): 250 × 10⁴ cells/ml
- Viral antigen-positive cell percentage (HIV (LAV 1); 10 mcg/ml, after 10 days): 50%
- Viable cell count (HIV (LAV 1); 10 mcg/ml, after 20 days): 370 × 10⁴ cells/ml
- Viral antigen-positive cell percentage (HIV (LAV 1); 10 mcg/ml, after 20 days): 4%
- Viable cell count (HIV (LAV 1); 10 mcg/ml, after 30 days): 400 × 10⁴ cells/ml
- Viral antigen-positive cell percentage (HIV (LAV 1); 10 mcg/ml, after 30 days): ≦1%
- viability at 1 µg/mL (HIV (LAV 1); 96 h, read-out: Viable cell percentage, 1 mcg/ml, 4-day addition, after 4 days): 94%
- viability at 2.5 µg/mL (HIV (LAV 1); 96 h, read-out: Viable cell percentage, 2.5 mcg/ml, 4-day addition, after 4 days): 94%
- viability at 5 µg/mL (HIV (LAV 1); 96 h, read-out: Viable cell percentage, 5 mcg/ml, 4-day addition, after 4 days): 94%
- viability at 10 µg/mL (HIV (LAV 1); 96 h, read-out: Viable cell percentage, 10 mcg/ml, 4-day addition, after 4 days): 92%
- viability at 1 µg/mL (HIV (LAV 1); read-out: Viable cell percentage, 1 mcg/ml, 4-day addition, after 7 days): 59%
- viability at 1 µg/mL (HIV (LAV 1); read-out: Viable cell percentage, 1 mcg/ml, 4-day addition, after 10 days): 30%
- viability at 1 µg/mL (HIV (LAV 1); read-out: Viable cell percentage, 1 mcg/ml, 4-day addition, after 20 days): 0%
- viability at 1 µg/mL (HIV (LAV 1); read-out: Viable cell percentage, 1 mcg/ml, 4-day addition, after 30 days): 0%
- viability at 2.5 µg/mL (HIV (LAV 1); read-out: Viable cell percentage, 2.5 mcg/ml, 4-day addition, after 7 days): 67%
- viability at 2.5 µg/mL (HIV (LAV 1); read-out: Viable cell percentage, 2.5 mcg/ml, 4-day addition, after 10 days): 47%
- viability at 2.5 µg/mL (HIV (LAV 1); read-out: Viable cell percentage, 2.5 mcg/ml, 4-day addition, after 20 days): 33%
- viability at 2.5 µg/mL (HIV (LAV 1); read-out: Viable cell percentage, 2.5 mcg/ml, 4-day addition, after 30 days): 96%
- viability at 5 µg/mL (HIV (LAV 1); read-out: Viable cell percentage, 5 mcg/ml, 4-day addition, after 7 days): 67%
- viability at 5 µg/mL (HIV (LAV 1); read-out: Viable cell percentage, 5 mcg/ml, 4-day addition, after 10 days): 61%
- viability at 5 µg/mL (HIV (LAV 1); read-out: Viable cell percentage, 5 mcg/ml, 4-day addition, after 20 days): 81%
- viability at 5 µg/mL (HIV (LAV 1); read-out: Viable cell percentage, 5 mcg/ml, 4-day addition, after 30 days): 95%
- viability at 10 µg/mL (HIV (LAV 1); read-out: Viable cell percentage, 10 mcg/ml, 4-day addition, after 7 days): 71%
- viability at 10 µg/mL (HIV (LAV 1); read-out: Viable cell percentage, 10 mcg/ml, 4-day addition, after 10 days): 91%
- viability at 10 µg/mL (HIV (LAV 1); read-out: Viable cell percentage, 10 mcg/ml, 4-day addition, after 20 days): 97%
- viability at 10 µg/mL (HIV (LAV 1); read-out: Viable cell percentage, 10 mcg/ml, 4-day addition, after 30 days): 94%
- LD50 (in vivo): ≥ 4000 mg/kg
